Measured values taken from PubChem BioAssay AID248 (DTP/NCI, 2004).
Values joined by “and” are separate entries in the source; they are usually repeats but may differ in a detail not shown here. Equal entries are not always repeated. Toxic doses and inconclusive results are not listed. No stated cut-off is given here; in the data, active means T/C of 150% or more; inactive means T/C below 125%. Square brackets hold non-standard residues; d marks the D form. Peptide text beside a SMILES is read from it. * marks the point of attachment. ξ: configuration not given here. Boc = CC(C)(C)OC(=O)*; ξP = O=C(O)C1CCCN1

System: L1210 leukemia ip in BDF1 mice, survival T/C
Experiment: NCI In Vivo Anticancer Drug Screen. Data for tumor model L1210 Leukemia (intraperitoneal) in B6D2F1 (BDF1) mice
Conditions: endpoint: mean survival time, higher = longer survival
How it was run: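 Tumor cells were implanted, animals were treated, and survival was followed. The result divides the treated measurement by the vehicle-control measurement.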

[1] = dose: 100.0 mg/kg/injection, schedule: Q01DX001 (ip), vehicle: saline
[2] = dose: 200.0 mg/kg/injection, schedule: Q01DX001 (ip), vehicle: saline
[3] = dose: 100.0 mg/kg/injection, schedule: Q01DX009 (ip), vehicle: Klucel (hydroxypropylcellulose) (HPC)
[4] = dose: 200.0 mg/kg/injection, schedule: Q01DX009 (ip), vehicle: Klucel (hydroxypropylcellulose) (HPC)
[5] = dose: 50.0 mg/kg/injection, schedule: Q01DX001 (ip), vehicle: carboxymethylcellulose (CMC)
[6] = dose: 200.0 mg/kg/injection, schedule: Q01DX001 (ip), vehicle: carboxymethylcellulose (CMC)
[7] = dose: 400.0 mg/kg/injection, schedule: Q01DX001 (ip), vehicle: carboxymethylcellulose (CMC)
[8] = dose: 50.0 mg/kg/injection, schedule: Q04DX002 (ip), vehicle: Klucel (hydroxypropylcellulose) (HPC)
[9] = dose: 100.0 mg/kg/injection, schedule: Q04DX002 (ip), vehicle: Klucel (hydroxypropylcellulose) (HPC)
[10] = dose: 200.0 mg/kg/injection, schedule: Q04DX002 (ip), vehicle: Klucel (hydroxypropylcellulose) (HPC)
[11] = dose: 400.0 mg/kg/injection, schedule: Q04DX002 (ip), vehicle: Klucel (hydroxypropylcellulose) (HPC)
[12] = dose: 100.0 mg/kg/injection, schedule: Q04DX003 (ip), vehicle: Klucel (hydroxypropylcellulose) (HPC)
[13] = dose: 200.0 mg/kg/injection, schedule: Q04DX003 (ip), vehicle: Klucel (hydroxypropylcellulose) (HPC)
[14] = dose: 400.0 mg/kg/injection, schedule: Q01DX009 (ip), vehicle: Klucel (hydroxypropylcellulose) (HPC)
[15] = dose: 400.0 mg/kg/injection, schedule: Q04DX003 (ip), vehicle: Klucel (hydroxypropylcellulose) (HPC)
[16] = dose: 100.0 mg/kg/injection, schedule: Q01DX001 (ip), vehicle: saline with Tween-80
[17] = dose: 200.0 mg/kg/injection, schedule: Q01DX001 (ip), vehicle: saline with Tween-80
[18] = dose: 100.0 mg/kg/injection, schedule: Q01DX001 (ip), vehicle: carboxymethylcellulose (CMC)
[19] = dose: 400.0 mg/kg/injection, schedule: Q01DX001 (ip), vehicle: saline with Tween-80
[20] = dose: 100.0 mg/kg/injection, schedule: Q04DX002 (ip), vehicle: saline with Tween-80
[21] = dose: 200.0 mg/kg/injection, schedule: Q04DX002 (ip), vehicle: saline with Tween-80
[22] = dose: 400.0 mg/kg/injection, schedule: Q04DX002 (ip), vehicle: saline with Tween-80
[23] = dose: 100.0 mg/kg/injection, schedule: Q04DX003 (ip), vehicle: saline with Tween-80
[24] = dose: 400.0 mg/kg/injection, schedule: Q04DX003 (ip), vehicle: saline with Tween-80

Measured: T/C

O=C1C2C3CCC(O3)C2C(=O)N1N1C(=O)C2C3CCC(O3)C2C1=O (stereo not drawn)
inactive: dose: 100.0 mg/kg/injection, schedule: Q01DX009 (ip), vehicle: carboxymethylcellulose (CMC) 102 % of control | dose: 100.0 mg/kg/injection, schedule: Q04DX003 (ip), vehicle: carboxymethylcellulose (CMC) 110 % of control | dose: 200.0 mg/kg/injection, schedule: Q01DX009 (ip), vehicle: carboxymethylcellulose (CMC) 97 % of control | dose: 200.0 mg/kg/injection, schedule: Q04DX003 (ip), vehicle: carboxymethylcellulose (CMC) 111 % of control | dose: 400.0 mg/kg/injection, schedule: Q01DX009 (ip), vehicle: carboxymethylcellulose (CMC) 87 % of control | dose: 400.0 mg/kg/injection, schedule: Q04DX003 (ip), vehicle: carboxymethylcellulose (CMC) 101 % of control

CCCC[n+]1cc(C(N)=O)cc2ccccc21
inactive: dose: 75.0 mg/kg/injection, schedule: Q01DX001 (ip), vehicle: saline 96 % of control | dose: 150.0 mg/kg/injection, schedule: Q01DX001 (ip), vehicle: saline 95 % of control

COC(=O)C1CCCN1C(=O)CNC(=O)OC(C)(C)C (stereo not drawn) (Boc-Gly-[ξP]-OMe)
inactive: [1] 103 % of control | [2] 97 % of control | dose: 400.0 mg/kg/injection, schedule: Q01DX001 (ip), vehicle: saline 94 % of control

CC(=O)OCC(=O)[C@@]1(O)CC[C@H]2[C@@H]3CCC4=CC(=O)C=C[C@]4(C)[C@@]3(F)[C@@H](O)C[C@@]21C
inactive: dose: 12.5 mg/kg/injection, schedule: Q01DX009 (ip), vehicle: saline with Tween-80 117 % of control | dose: 25.0 mg/kg/injection, schedule: Q01DX009 (ip), vehicle: saline with Tween-80 101 % of control | dose: 50.0 mg/kg/injection, schedule: Q01DX009 (ip), vehicle: saline with Tween-80 96 % of control

CCCN(CCC)C(=O)CCC(C)O (stereo not drawn)
inactive: dose: 100.0 mg/kg/injection, schedule: Q01DX001 (ip), vehicle: acetone 113 % of control | dose: 200.0 mg/kg/injection, schedule: Q01DX001 (ip), vehicle: acetone 101 % of control | dose: 400.0 mg/kg/injection, schedule: Q01DX001 (ip), vehicle: acetone 103 % of control

S=C(N/N=C/c1ccccn1)NC1CC2C=CC1C2 (stereo not drawn)
inactive: [3] 100 % of control | [4] 95 % of control

C=CCCCCCCC=C
inactive: [5] 93 % of control | [6] 88 % of control | [7] 93 % of control

CN(C)N=Nc1ccc(S(=O)(=O)N(CCCl)CCCl)cc1
inactive: dose: 12.5 mg/kg/injection, schedule: Q04DX002 (ip), vehicle: Klucel (hydroxypropylcellulose) (HPC) 100 % of control | dose: 25.0 mg/kg/injection, schedule: Q04DX002 (ip), vehicle: Klucel (hydroxypropylcellulose) (HPC) 96 % of control | [8] 103 % of control | [9] 120 % of control | [10] 103 % of control | [11] 95 % of control

CCOc1ccc(/C=C2\N=C(c3ccccc3)OC2=O)cc1
inactive: [3] 98 % of control | [12] 100 % of control | [4] 88 % of control | [13] 100 % of control | [14] 93 % of control | [15] 98 % of control

OC1OC(COCc2ccccc2)C(OCc2ccccc2)C1OCc1ccccc1 (stereo not drawn)
inactive: [16] 95 % of control | [17] 95 % of control

COC(=O)c1ccc(C(=O)NCCCc2c(C)nc(N)[nH]c2=O)cc1
inactive: dose: 100.0 mg/kg/injection, schedule: Q01DX001 (ip), vehicle: Klucel (hydroxypropylcellulose) (HPC) 97 % of control | dose: 200.0 mg/kg/injection, schedule: Q01DX001 (ip), vehicle: Klucel (hydroxypropylcellulose) (HPC) 92 % of control | dose: 400.0 mg/kg/injection, schedule: Q01DX001 (ip), vehicle: Klucel (hydroxypropylcellulose) (HPC) 92 % of control

Nc1cc(Br)cc2c1-c1ccc(Br)cc1C2
inactive: [5] 107 % of control | [18] 104 % of control | [6] 96 % of control | [7] 102 % of control

COC(=O)C(COC1OC(COC(C)=O)C(OC(C)=O)C(OC(C)=O)C1NC(C)=O)NC(=O)OCc1ccccc1 (stereo not drawn)
inactive: [8] 91 % of control | [9] 98 % of control | [10] 88 % of control

CCCCCCCCP(=O)(CCCCCC)CCCCCC
inactive: [16] 97 % of control | [17] 101 % of control | [19] 111 % of control

COc1cc(C2=N/C(=C\c3cc(Br)cc(Br)c3O)C(=O)O2)cc(OC)c1OC
inactive: dose: 25.0 mg/kg/injection, schedule: Q04DX002 (ip), vehicle: saline with Tween-80 97 % of control | dose: 50.0 mg/kg/injection, schedule: Q04DX002 (ip), vehicle: saline with Tween-80 90 % of control | [20] 90 % of control | [21] 95 % of control | [22] 95 % of control

COC(=O)c1ccccc1NC(=O)NCCBr
inactive: [3] 95 % of control | [12] 103 % of control | [4] 93 % of control | [13] 97 % of control | [14] 93 % of control | [15] 110 % of control

NNc1cc(=O)n2ccccc2n1
inactive: [18] 98 % of control | [6] 98 % of control | [7] 101 % of control

CCOC1OC(=O)c2cccc3ccc4cccc1c4c23 (stereo not drawn)
inactive: [9] 90 % of control | [10] 86 % of control | [11] 93 % of control

C=CCNCC=C
inactive: dose: 50.0 mg/kg/injection, schedule: Q01DX001 (ip), vehicle: saline 96 % of control | [1] 96 % of control | [2] 98 % of control

O=C1NC(=S)S/C1=C/c1ccc2c(c1)OCO2
inactive: dose: 7.5 mg/kg/injection, schedule: Q01DX009 (ip), vehicle: saline with Tween-80 93 % of control | dose: 15.0 mg/kg/injection, schedule: Q01DX009 (ip), vehicle: saline with Tween-80 88 % of control | dose: 30.0 mg/kg/injection, schedule: Q01DX009 (ip), vehicle: saline with Tween-80 89 % of control

N=c1ncn(C2OC(COP(=O)(O)O)C(O)C2O)c2nc[nH]c12 (stereo not drawn)
inactive: dose: 1.56 mg/kg/injection, schedule: Q01DX005 (ip), vehicle: water 102 % of control | dose: 6.25 mg/kg/injection, schedule: Q01DX005 (ip), vehicle: water 103 % of control | dose: 12.5 mg/kg/injection, schedule: Q01DX005 (ip), vehicle: water 105 % of control | dose: 25.0 mg/kg/injection, schedule: Q01DX005 (ip), vehicle: water 94 % of control

CCOC(=O)c1ccc(N(CC(O)CN=[N+]=[N-])S(=O)(=O)c2ccc(C)cc2)cc1 (stereo not drawn)
inactive: [16] 101 % of control | dose: 100.0 mg/kg/injection, schedule: Q01DX009 (ip), vehicle: saline with Tween-80 102 % of control and 107 % of control | [20] 98 % of control | [23] 88 % of control | [17] 101 % of control | dose: 200.0 mg/kg/injection, schedule: Q01DX009 (ip), vehicle: saline with Tween-80 95 % of control and 100 % of control | [21] 93 % of control and 89 % of control | [19] 104 % of control | dose: 400.0 mg/kg/injection, schedule: Q01DX009 (ip), vehicle: saline with Tween-80 104 % of control and 91 % of control | [22] 96 % of control and 89 % of control | [24] 88 % of control

CCCCNC(=O)Oc1c(Cl)cc(Cl)c(Cl)c1[N+](=O)[O-]
inactive: dose: 12.5 mg/kg/injection, schedule: Q01DX009 (ip), vehicle: Klucel (hydroxypropylcellulose) (HPC) 96 % of control | dose: 25.0 mg/kg/injection, schedule: Q01DX009 (ip), vehicle: Klucel (hydroxypropylcellulose) (HPC) 112 % of control | dose: 50.0 mg/kg/injection, schedule: Q01DX009 (ip), vehicle: Klucel (hydroxypropylcellulose) (HPC) 101 % of control

Cc1ccc(S(=O)(=O)OCCOCCOS(=O)(=O)c2ccc(C)cc2)cc1
inactive: [23] 100 % of control | dose: 200.0 mg/kg/injection, schedule: Q04DX003 (ip), vehicle: saline with Tween-80 104 % of control | [24] 100 % of control
